Results: ChEMBL document CHEMBL1201862, “PubChem BioAssay data set” (2004)
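Cultured in 96-well plates, cells were exposed to test compound for 48 hours across five concentrations. GI50 is the concentration that inhibits growth by half.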 The source made the active and inactive calls. No stated cut-off is given here; in the data, active = GI50 up to about 1.1 µM and inactive = higher.

Assays:
Assay in all cases: NCI-60 cell line screen, 48 h
U-251 = system: U-251
UACC-257 = system: UACC-257
HL-60 = system: HL-60
SNB-19 = system: SNB-19
KM12 = system: KM12
RPMI-8226 = system: RPMI-8226
SK-MEL-2 = system: SK-MEL-2
A498 = system: A498
HCC 2998 = system: HCC 2998
EKVX = system: EKVX
HCT-15 = system: HCT-15
UO-31 = system: UO-31
SNB-75 = system: SNB-75
ACHN = system: ACHN
TK-10 = system: TK-10
LOX IMVI = system: LOX IMVI
CCRF-CEM = system: CCRF-CEM
SF-268 = system: SF-268
RXF 393 = system: RXF 393
HT-29 = system: HT-29
PC-3 = system: PC-3
OVCAR-8 = system: OVCAR-8
OVCAR-4 = system: OVCAR-4
MDA-MB-435 = system: MDA-MB-435
NCI-H226 = system: NCI-H226
HOP-92 = system: HOP-92
MOLT-4 = system: MOLT-4
786-0 = system: 786-0
NCI-H522 = system: NCI-H522
NCI-H23 = system: NCI-H23
COLO 205 = system: COLO 205
Malme-3M = system: Malme-3M
NCI-H460 = system: NCI-H460
SK-OV-3 = system: SK-OV-3
T47D = system: T47D
OVCAR-3 = system: OVCAR-3
M14 = system: M14
NCI/ADR-RES = system: NCI/ADR-RES
CAKI-1 = system: CAKI-1
SW-620 = system: SW-620
BT-549 = system: BT-549
HOP-62 = system: HOP-62
SN12C = system: SN12C
MDA-N = system: MDA-N
A549 = system: A549
SK-MEL-5 = system: SK-MEL-5
IGROV-1 = system: IGROV-1
SK-MEL-28 = system: SK-MEL-28
SF-295 = system: SF-295
HCT-116 = system: HCT-116
MCF7 = system: MCF7
UACC-62 = system: UACC-62
MDA-MB-231 = system: MDA-MB-231
OVCAR-5 = system: OVCAR-5
DU-145 = system: DU-145
Hs-578T = system: Hs-578T
K562 = system: K562
SR = system: SR
SF-539 = system: SF-539

Structure (SMILES): CCOC(=O)N1c2ccccc2N(C(=O)OCC)C1CC(=O)/C=C/c1ccccc1
- GI50 (U-251): 3460 nM (inactive)
- GI50 (UACC-257): 6490 nM (inactive)
- GI50 (HL-60): 2610 nM (inactive)
- GI50 (SNB-19): 3280 nM (inactive)
- GI50 (KM12): 3050 nM (inactive)
- GI50 (RPMI-8226): 3190 nM (inactive)
- GI50 (SK-MEL-2): 1940 nM (inactive)
- GI50 (A498): 3370 nM (inactive)
- GI50 (HCC 2998): 3000 nM (inactive)
- GI50 (EKVX): 2790 nM (inactive)
- GI50 (HCT-15): 2980 nM
- GI50 (UO-31): 3820 nM (inactive)
- GI50 (SNB-75): 3340 nM (inactive)
- GI50 (ACHN): 4150 nM (inactive)
- GI50 (TK-10): 3740 nM (inactive)
- GI50 (LOX IMVI): 2450 nM (inactive)
- GI50 (CCRF-CEM): 1860 nM (inactive)
- GI50 (SF-268): 2370 nM (inactive)
- GI50 (RXF 393): 3850 nM (inactive)
- GI50 (HT-29): 2940 nM (inactive)
- GI50 (PC-3): 3940 nM (inactive)
- GI50 (OVCAR-8): 2650 nM (inactive)
- GI50 (OVCAR-4): 2230 nM (inactive)
- GI50 (MDA-MB-435): 2740 nM (inactive)
- GI50 (NCI-H226): 2810 nM (inactive)
- GI50 (HOP-92): 1970 nM (inactive)
- GI50 (MOLT-4): 2400 nM (inactive)
- GI50 (786-0): 3300 nM (inactive)
- GI50 (NCI-H522): 1780 nM (inactive)
- GI50 (NCI-H23): 2880 nM (inactive)
- GI50 (COLO 205): 2040 nM (inactive)
- GI50 (Malme-3M): 4060 nM (inactive)
- GI50 (NCI-H460): 3030 nM (inactive)
- GI50 (SK-OV-3): 5350 nM (inactive)
- GI50 (T47D): 5160 nM (inactive)
- GI50 (OVCAR-3): 3130 nM (inactive)
- GI50 (M14): 4450 nM (inactive)
- GI50 (NCI/ADR-RES): 2730 nM (inactive)
- GI50 (CAKI-1): 1440 nM (inactive)
- GI50 (SW-620): 2060 nM (inactive)
- GI50 (BT-549): 2890 nM (inactive)
- GI50 (HOP-62): 3990 nM (inactive)
- GI50 (SN12C): 3660 nM (inactive)
- GI50 (MDA-N): 3570 nM (inactive)
- GI50 (A549): 3360 nM (inactive)
- GI50 (SK-MEL-5): 2470 nM (inactive)
- GI50 (IGROV-1): 3630 nM (inactive)
- GI50 (SK-MEL-28): 7570 nM (inactive)
- GI50 (SF-295): 4050 nM (inactive)
- GI50 (HCT-116): 3300 nM (inactive)
- GI50 (MCF7): 3100 nM (inactive)
- GI50 (UACC-62): 2700 nM (inactive)
- GI50 (MDA-MB-231): 4030 nM (inactive)
- GI50 (OVCAR-5): 2650 nM (inactive)
- GI50 (DU-145): 2690 nM (inactive)
- GI50 (Hs-578T): 1870 nM (inactive)
- GI50 (K562): 3720 nM (inactive)
- GI50 (SR): 2300 nM (inactive)

Structure (SMILES): COc1cccc(-c2cc(O)c3cc(N4CCN(C)CC4)ccc3n2)c1
- GI50 (U-251): 785 nM (active)
- GI50 (UACC-257): 706 nM (active)
- GI50 (SF-539): 557 nM (active)
- GI50 (HL-60): 537 nM (active)
- GI50 (SNB-19): 2770 nM (inactive)
- GI50 (KM12): 1910 nM (inactive)
- GI50 (RPMI-8226): 3350 nM (inactive)
- GI50 (SK-MEL-2): 1190 nM (inactive)
- GI50 (A498): 1060 nM (active)
- GI50 (HCC 2998): 2010 nM (inactive)
- GI50 (EKVX): 3370 nM (inactive)
- GI50 (HCT-15): 1750 nM
- GI50 (UO-31): 6900 nM (inactive)
- GI50 (SNB-75): 5300 nM (inactive)
- GI50 (ACHN): 5250 nM (inactive)
- GI50 (TK-10): 9640 nM (inactive)
- GI50 (LOX IMVI): 1730 nM (inactive)
- GI50 (CCRF-CEM): 986 nM (active)
- GI50 (SF-268): 1910 nM (inactive)
- GI50 (RXF 393): 1180 nM (inactive)
- GI50 (HT-29): 2240 nM (inactive)
- GI50 (PC-3): 2440 nM (inactive)
- GI50 (OVCAR-8): 2010 nM (inactive)
- GI50 (OVCAR-4): 5280 nM (inactive)
- GI50 (MDA-MB-435): 225 nM (active)
- GI50 (NCI-H226): 1710 nM (inactive)
- GI50 (HOP-92): 1060 nM (active)
- GI50 (MOLT-4): 2910 nM (inactive)
- GI50 (786-0): 2960 nM (inactive)
- GI50 (NCI-H522): 1570 nM (inactive)
- GI50 (NCI-H23): 2540 nM (inactive)
- GI50 (COLO 205): 1670 nM (inactive)
- GI50 (Malme-3M): 641 nM (active)
- GI50 (NCI-H460): 2990 nM (inactive)
- GI50 (SK-OV-3): 2820 nM (inactive)
- GI50 (T47D): > 10000 nM (inactive)
- GI50 (M14): 1990 nM (inactive)
- GI50 (NCI/ADR-RES): 1470 nM (inactive)
- GI50 (CAKI-1): 2660 nM (inactive)
- GI50 (SW-620): 522 nM (active)
- GI50 (BT-549): 4460 nM (inactive)
- GI50 (HOP-62): 1640 nM (inactive)
- GI50 (SN12C): 2920 nM (inactive)
- GI50 (MDA-N): 265 nM (active)
- GI50 (A549): 2390 nM (inactive)
- GI50 (SK-MEL-5): 454 nM (active)
- GI50 (IGROV-1): 3200 nM (inactive)
- GI50 (SK-MEL-28): 1470 nM (inactive)
- GI50 (SF-295): 1710 nM (inactive)
- GI50 (HCT-116): 543 nM (active)
- GI50 (MCF7): 2670 nM (inactive)
- GI50 (UACC-62): 1280 nM (inactive)
- GI50 (MDA-MB-231): 3340 nM (inactive)
- GI50 (OVCAR-5): 5140 nM (inactive)
- GI50 (DU-145): 3210 nM (inactive)
- GI50 (Hs-578T): 774 nM (active)
- GI50 (K562): 628 nM (active)
- GI50 (SR): 420 nM (active)
